# BindingDB's records for doi:10.1021/jm00403a001 (Smith Kline & French Laboratories, 1988)
# Biological target: Vasopressin V2 receptor (Canis familiaris)
# Test: In vitro antagonist activity was measured by inhibition of vasopressin-stimulated adenylate cyclase in renal medullary preparation in dog
structure (smiles),measurement,value
"CCOc1ccc(C[C@H]2NC(=O)CC3(CCCCC3)CCC[C@@H](C(=O)N3CCC[C@H]3C(=O)N[C@@H](CCCN=C(N)N)C(N)=O)NC(=O)[C@H](CC(N)=O)NC(=O)[C@H](C(C)C)NC(=O)[C@H](Cc3ccccc3)NC2=O)cc1 [1-[13-Benzyl-19-carbamoylmethyl-10-(4-ethoxy-benzyl)-16-isopropyl-8,11,14,17,20-pentaoxo-9,12,15,18,21-pentaaza-spiro[5.19]pentacosane-22-carbonyl]-pyrrolidine-2-carboxylic acid (1-carbamoyl-4-guanidino-butyl)-amide]",Ki,1000 µM
